Results on eight compounds are retold here after ChEMBL document CHEMBL1201862, “PubChem BioAssay data set” (2004).

Test systems include HOP-92; UACC-62; NCI-H226; HCT-15; A498; DU-145; LOX IMVI; SNB-19; T47D; 786-0; SR; CCRF-CEM; KM12; HT-29; HCT-116; K562; NCI-H23; SF-295; NCI/ADR-RES; HCC 2998.
What all share (experiment): DTP human tumour cell line panel, 48 h

Molecules are shown by their SMILES.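 Grown in 96-well plates, cells were treated for 48 hours with each compound at five concentrations. Insufficient inhibition: endpoint recorded as highest concentration tested. GI50 is the concentration that inhibits growth by half.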 Calls of active or inactive are those of the source. No stated cut-off is given here; in the data, active = GI50 up to about 1.1 µM and inactive = higher.

For the compound `O=C(O)CN(CC(=O)O)c1ccccc1`, the GI50 with HOP-92 is 48.9 µM (inactive); in the assay with UACC-62, 32 µM (inactive); in the assay with NCI-H226 it was > 100 µM (inactive); in the assay on HCT-15 it was above 100 µM; in the assay on A498 it was > 100 µM (inactive); with DU-145, > 100 µM (inactive). The GI50 was > 100 µM (inactive) in the assay with LOX IMVI; > 100 µM (inactive) in the assay on SNB-19; 37.3 µM (inactive) with T47D; > 100 µM (inactive) in the assay on 786-0; > 100 µM (inactive) with SR; 34 µM (inactive) in the assay with CCRF-CEM. For the same compound, the GI50 with KM12 is 60.1 µM (inactive); in the assay on HT-29 it was 59.4 µM (inactive); with HCT-116 it was 56.5 µM (inactive); in the assay on K562 it was 35 µM (inactive); in the assay with NCI-H23 it was 75.3 µM (inactive); in the assay on SF-295, > 100 µM (inactive). Moreover, the GI50 with NCI/ADR-RES is > 100 µM (inactive).

On to `N=C(N)NNC(=O)C(=O)O`, for which the GI50 was > 100 µM (inactive) with UACC-62; > 100 µM (inactive) in the assay on NCI-H226; above 100 µM in the assay with HCT-15; > 100 µM (inactive) in the assay on A498; > 100 µM (inactive) in the assay on HCC 2998; > 100 µM (inactive) in the assay with DU-145. The GI50 in the assay on LOX IMVI, in the assay on SNB-19, in the assay with T47D, in the assay with 786-0, in the assay with SR and with CCRF-CEM was > 100 µM (inactive) throughout. Besides, the GI50 with KM12, in the assay with HT-29, with HCT-116, in the assay on K562, in the assay with NCI-H23 and in the assay with SF-295 was > 100 µM (inactive) each time. In the assay with NCI/ADR-RES, the GI50 was > 100 µM (inactive).

Consider `COc1ccc2o/c(=N/c3ccccc3)c(C(N)=O)cc2c1`, for which the GI50 in the assay with HOP-92 was > 50.9 µM (inactive); in the assay with NCI-H226 it was > 85.3 µM (inactive); with HCT-15, above 100 µM; with HCC 2998, > 100 µM (inactive); with DU-145 it was > 100 µM (inactive); in the assay with LOX IMVI, > 100 µM (inactive). In addition, the GI50 in the assay on T47D was > 100 µM (inactive); in the assay on 786-0, > 57.8 µM (inactive); in the assay with SR, > 100 µM (inactive); in the assay with CCRF-CEM, > 100 µM (inactive); with KM12, > 100 µM (inactive); in the assay on HCT-116, > 69.8 µM (inactive). Moreover, the GI50 in the assay with K562 was > 100 µM (inactive); with NCI-H23, > 58.1 µM (inactive); in the assay with SF-295, 74 µM (inactive); in the assay with NCI/ADR-RES, > 69.8 µM (inactive).

As for `CCNC(=S)N/N=C/c1cc(OC)ccc1O`, the GI50 in the assay with HOP-92 is 45.1 µM (inactive); with UACC-62, 99.1 µM (inactive); in the assay with NCI-H226, > 100 µM (inactive); with HCT-15, 47.6 µM; in the assay on HCC 2998, > 100 µM (inactive); in the assay with DU-145 it was > 100 µM (inactive). Moreover, the GI50 in the assay on LOX IMVI is 99.3 µM (inactive); in the assay on SNB-19, > 100 µM (inactive); in the assay with T47D it was 24.3 µM (inactive); in the assay on 786-0, 67.1 µM (inactive); in the assay with SR, 69.5 µM (inactive); in the assay on CCRF-CEM, 66.5 µM (inactive). Moreover, the GI50 was 88.1 µM (inactive) in the assay with KM12; > 100 µM (inactive) in the assay on HT-29; 85.5 µM (inactive) in the assay with HCT-116; 97.9 µM (inactive) in the assay on K562; > 100 µM (inactive) in the assay on NCI-H23; 70.3 µM (inactive) with SF-295. Besides, in the assay on NCI/ADR-RES, the GI50 is 83.6 µM (inactive).

Regarding `CC1=NN(C(=O)CC(=O)Nc2ccccc2)C(=O)C1/N=N/c1ccc(C(=O)O)cc1` (stereo not drawn), the GI50 in the assay on HOP-92 is 22.1 µM (inactive); in the assay on UACC-62, > 100 µM (inactive); in the assay with HCT-15 it was above 100 µM; in the assay with A498, > 100 µM (inactive); with HCC 2998, > 100 µM (inactive); in the assay with DU-145, > 100 µM (inactive). The GI50 in the assay on LOX IMVI was > 100 µM (inactive); with SNB-19, 80.5 µM (inactive); with T47D, 62.7 µM (inactive); in the assay with 786-0, > 100 µM (inactive); in the assay on SR, 50.6 µM (inactive); with CCRF-CEM, > 100 µM (inactive). Besides, the GI50 in the assay with KM12, in the assay on HT-29, in the assay with HCT-116, with K562, with NCI-H23 and in the assay with SF-295 was > 100 µM (inactive) in each case. Besides, the GI50 in the assay with NCI/ADR-RES is > 100 µM (inactive).

As to `c1ccc2cc(OCC3CO3)c(OCC3CO3)cc2c1` (stereo not drawn), the GI50 was 8.55 µM (inactive) with HOP-92; 2.84 µM (inactive) in the assay with UACC-62; 4.63 µM with HCT-15; 2 µM (inactive) in the assay with A498; 3.85 µM (inactive) in the assay on DU-145; 1.03 µM (active) in the assay with LOX IMVI. Besides, the GI50 is 5.3 µM (inactive) with SNB-19; 10.9 µM (inactive) with T47D; 1.54 µM (inactive) in the assay with 786-0; 0.333 µM (active) in the assay on SR; 0.16 µM (active) in the assay with CCRF-CEM; 5.7 µM (inactive) in the assay with KM12. Further, the GI50 in the assay with HT-29 is 7.05 µM (inactive); with HCT-116, 1.3 µM (inactive); in the assay with K562, 3.73 µM (inactive); in the assay on NCI-H23, 2.72 µM (inactive); in the assay on SF-295, 2.21 µM (inactive); with NCI/ADR-RES, 4.05 µM (inactive).

For the compound `CC(C)c1cc(Cl)nc(Cl)n1`, the GI50 is > 100 µM (inactive) in the assay on UACC-62; > 100 µM (inactive) with NCI-H226; above 100 µM in the assay with HCT-15; > 100 µM (inactive) in the assay on A498; > 100 µM (inactive) with HCC 2998; > 100 µM (inactive) with DU-145. For the same compound, the GI50 in the assay on LOX IMVI, with SNB-19, in the assay with T47D, in the assay on 786-0, with SR and in the assay on CCRF-CEM was > 100 µM (inactive) throughout. Moreover, the GI50 in the assay on KM12, in the assay with HT-29, in the assay on HCT-116, in the assay on K562, in the assay on NCI-H23 and with SF-295 was > 100 µM (inactive) each time. In addition, the GI50 with NCI/ADR-RES is > 100 µM (inactive).

`CCC/C(Cl)=N/OC(NC(=O)OCC)(C(F)(F)F)C(F)(F)F`: the GI50 was 20.3 µM (inactive) in the assay with HOP-92; 48.1 µM (inactive) with UACC-62; > 100 µM (inactive) in the assay with NCI-H226; 21.6 µM in the assay with HCT-15; > 100 µM (inactive) in the assay on A498; > 100 µM (inactive) in the assay with DU-145. In addition, the GI50 in the assay on LOX IMVI was 17.9 µM (inactive); in the assay with SNB-19, > 100 µM (inactive); in the assay with T47D it was 45.4 µM (inactive); with 786-0 it was 17.4 µM (inactive); in the assay on SR it was 23.1 µM (inactive); in the assay on CCRF-CEM, 22.1 µM (inactive). For the same compound, the GI50 is > 100 µM (inactive) in the assay on KM12; 22.4 µM (inactive) in the assay on HT-29; 19.4 µM (inactive) with HCT-116; 25.6 µM (inactive) in the assay with K562; 25.1 µM (inactive) with NCI-H23; > 100 µM (inactive) in the assay with SF-295. The GI50 with NCI/ADR-RES is 34.5 µM (inactive).

What is called GI50 is the concentration that inhibits growth by half.
